# Data from publication PMC5971566, “Population Pharmacokinetic Analyses for Rezafungin (CD101) Efficacy Using Phase 1 Data” (Antimicrobial Agents and Chemotherapy, 2018).
# Numbered stars: 1 amine (or outer) side, 2 acyl side, 3 side chain; on linkers, the order of the positions; unused ones are H or OH. Bridge positions count the residues as written; N and C are the ends. Square brackets hold non-standard residues; d marks the D form. Peptide text beside a SMILES is read from it. * marks the point of attachment. Orn(4R-OH,5R-OCH2CH2NMe3+) = C[N+](C)(C)CCO[C@@H](N[*:3])[C@H](O)C[C@H](N[*:1])C(=O)[*:2]; pTerphenylCO(4''-OnC5H11) = CCCCCOc1ccc(-c2ccc(-c3ccc(C(=O)*)cc3)cc2)cc1; hTyr(3S-OH,4S-OH) = N[C@H](C(=O)O)[C@H](O)[C@@H](O)c1ccc(O)cc1; Pro(3S-OH,4S-Me) = C[C@H]1CN[C@H](C(=O)O)[C@H]1O; Hyp = O=C(O)[C@@H]1C[C@@H](O)CN1
# Key:
# [1] = Population PK model of rezafungin plasma concentrations, pooled phase 1 single- and multiple-ascending-dose i.v. data; assay type: in vivo, humans (healthy subjects)
# Text: Data were pooled from two phase 1 studies (ClinicalTrials.gov registration no. NCT02516904 and NCT02551549) previously described by Sandison et al. ([8]). The protocols and informed consent were reviewed and approved by an appropriate institutional review board before subject enrollment. The studies were designed and monitored in compliance with the ethical principles of good clinical practice and in accordance with the Declaration of Helsinki.
# The first study (ClinicalTrials.gov registration no. NCT2516904) evaluated single i.v. doses of rezafungin. A total of 32 subjects were enrolled and randomized evenly to one of four cohorts. Within each cohort, six subjects were administered rezafungin and two subjects were administered placebo as a single 60-min i.v. infusion. A single rezafungin dose of 50, 100, 200, and 400 mg was administered to cohorts 1, 2, 3, and 4, respectively. In all cohorts, blood samples for PK evaluations were collected predose and at 0.25, 0.5, 1, 1.5, 2, 4, 6, 8, 12, 24, 48, and 120 h after the start of infusion and on days 7, 14 (±1 day), and 21 (±1 day).
# The second study (ClinicalTrials.gov registration no. NCT02551549) evaluated multiple i.v. doses of rezafungin. A total of 24 subjects were enrolled and randomized evenly to one of three cohorts. Within cohorts 1 and 2, six subjects were administered once-weekly i.v. doses of rezafungin at 100 and 200 mg, respectively, and two subjects were administered once-weekly i.v. doses of placebo, infused over 60 min on days 1 and 8. Within cohort 3, six subjects were administered once-weekly i.v. rezafungin doses of 400 mg and two subjects were administered once-weekly i.v. doses of placebo, infused over 60 min on days 1, 8, and 15. Blood samples were collected predose and at 0.5, 1, 1.5, 2, 4, 6, 8, 12, 24, 48, and 120 h after the start of each infusion and on days 7, 14 (±1 day), 21 (±1 day), and 35 (±1 day, cohort 3 only).
# (§1) All blood samples were collected using tubes with K2-EDTA. Plasma was collected by centrifugation and stored at −70°C until analysis. Samples were analyzed using a 100-μl aliquot volume and a protein-precipitation extraction procedure followed by liquid chromatography/tandem mass spectrometry analysis. The rezafungin calibration range was 10.0 ng/ml to 10,000 ng/ml, using d9-CD101 as an internal standard. The range of the assay was extended 10-fold by dilution. An AB-Sciex API 4000 system was operated in the selected reaction-monitoring mode under optimized conditions for detection of rezafungin and d9-CD101 positive ions formed by electrospray ionization. Excellent interassay accuracy and precision, as measured by the use of quality control (QC) samples, were obtained during validation. Across the range of QC samples tested (lower limit of quantitation through the high-QC range), the interassay accuracy (percent bias from nominal) ranged from 0.3% to 4.3%, while the interassay precision (percent CV) ranged from 2.7% to 5%. Dilution QC samples performed well, with −1.5% bias and an interassay precision of 3.4%.
# Candidate population PK models were fit to the pooled data using Monte Carlo parametric expectation maximization as implemented in the open-source software program S-ADAPT (version 1.5.6) ([22][–][24]). The model selection criteria used to discriminate between candidate PK models included (i) evaluation of individual and population mean parameter estimates and their precision (standard error of the mean [SEM]), (ii) graphical examination of standard goodness-of-fit plots and plots of the observed versus individual predicted concentrations, (iii) reductions in both residual variability and interindividual variability, and (iv) comparison of the objective function for nested models or the Akaike information criterion ([25]) for either nested or nonnested models.
# Interindividual variability was estimated for each structural population PK model parameter, where possible, by using an exponential-error model. […]
# [2] = Stability of rezafungin in plasma samples (bioanalytical validation, LC-MS/MS); assay type: in vitro ADME; details: K2-EDTA plasma samples
# Experimental: as §1
# [3] = 400 mg the highest dose evaluated; cited from earlier work
# Experimental: One of the unique features of rezafungin is its long half-life. […] This value far exceeds those reported for other echinocandins, which have terminal half-lives ranging from 9 to 52 h ([9][–][11]). […] Moreover, the model- ...
# [4] = cited from earlier work
# Experimental: One of the unique features of rezafungin is its long half-life. […] This value far exceeds those reported for other echinocandins, which have terminal half-lives ranging from 9 to 52 h ([9][–][11]). […] Given rezafungin's long half-life, it is being evaluated ...
# C. albicans isolates = details: cited from earlier work
# Text: (§2) Historically, Candida albicans has been the predominant pathogen in candidemia and invasive candidiasis infections ([1]). Despite this, Candida glabrata is now emerging as a greater concern for clinicians due to a recent increase in prevalence among candidemia and invasive candidiasis infections and the pathogen's natural predisposition for expressing azole and echinocandin resistance mutations ([2], [3]). Accordingly, the incidence of infections due to C. glabrata not only has increased more than 4-fold over the past 20 years ([4]) but also has been accompanied by an increased prevalence of b ...
# C. glabrata isolates = details: including an echinocandin-resistant C. glabrata isolate; cited from earlier work
# Text: as §2
# Candida albicans = details: including azole- and echinocandin-resistant isolates; ref not given; cited from earlier work
# Text: as §2
# Candida glabrata = details: including azole- and echinocandin-resistant isolates; ref not given; cited from earlier work
# Text: as §2
# [5] = healthy subjects n = 42, i.v., four-compartment population PK model
# [6] = weight power function centered on 75 kg, power fixed to 0.75
# [7] = weight power function centered on 75 kg, power fixed to 1.0
compound,measurement,setting,value
"CCCCCOc1ccc(-c2ccc(-c3ccc(C(=O)N[C@H]4C[C@@H](O)[C@@H](OCC[N+](C)(C)C)NC(=O)[C@@H]5[C@@H](O)[C@@H](C)CN5C(=O)[C@H]([C@@H](C)O)NC(=O)[C@H]([C@H](O)[C@@H](O)c5ccc(O)cc5)NC(=O)[C@@H]5C[C@@H](O)CN5C(=O)[C@H]([C@@H](C)O)NC4=O)cc3)cc2)cc1 [Rezafungin] ({pTerphenylCO(4''-OnC5H11)}-[Orn(4R-OH,5R-OCH2CH2NMe3+)]T[Hyp][hTyr(3S-OH,4S-OH)]T[Pro(3S-OH,4S-Me)]; lactam 1-C)","rezafungin clearance, typical 50-kg subject","[1]; final population PK model, allometric scaling, 50 kg",0.138 L/h
same,"rezafungin clearance, typical 100-kg subject","[1]; final population PK model, allometric scaling, 100 kg",0.232 L/h
same,"Q2, distributional clearance, population mean final estimate",[1]; [5],24.4 L/h
same,"Q3, distributional clearance, population mean final estimate",[1]; [5],0.912 L/h
same,"Q4, distributional clearance, population mean final estimate",[1]; [5],0.0739 L/h
same,"V2, volume of distribution of the peripheral compartment, population mean final estimate",[1]; [5],12.6 L
same,"V3, volume of distribution of the peripheral compartment, population mean final estimate",[1]; [5],8.75 L
same,"V4, volume of distribution of the peripheral compartment, population mean final estimate",[1]; [5],27.9 L
same,"Vc, volume of distribution of the central compartment, population mean final estimate",[1]; [5],8.94 L
same,clearance,"[1]; human, iv, healthy subjects n = 42, i.v. 60-min infusion 50-400 mg single or once weekly, plasma, linear four-compartment model, S-ADAPT, read-out: CL, total clearance, population mean final estimate (converted)",3.13 mL/min
same,"CL coefficient, population mean final estimate",[1]; [6],0.187 liter/h/75 kg
same,"Q2 coefficient, population mean final estimate",[1]; [6],24.3 liters/h/75 kg
same,"Q3 coefficient, population mean final estimate",[1]; [6],0.908 liter/h/75 kg
same,"Q4 coefficient, population mean final estimate",[1]; [6],0.0736 liter/h/75 kg
same,"V2 coefficient, population mean final estimate",[1]; [7],12.5 liters/75 kg
same,"V3 coefficient, population mean final estimate",[1]; [7],8.70 liters/75 kg
same,"V4 coefficient, population mean final estimate",[1]; [7],27.7 liters/75 kg
same,"Vc coefficient, population mean final estimate",[1]; [7],8.88 liters/75 kg
same,freeze-thaw stability,[2],stable through four freeze-thaw cycles
same,stability under frozen storage conditions,[2]; either at −20°C or at −70°C,at least 164 days
same,stability at room temperature,[2]; room temperature,at least 24 h
same,"dose proportionality of maximum concentration, AUC and half-life",[3],dose proportional up to 400 mg
same,serious or severe adverse events,[4]; either phase 1 study,No serious or severe adverse events were observed
same,patients with moderate treatment-related adverse events,"[4]; of the 42 patients evaluated, phase 1 studies",4
same,safety signals,[4]; phase 1 studies,no safety signals were noted
same,in vivo activity against a range of C. albicans isolates,C. albicans isolates,in vivo activity
same,in vivo activity against a range of C. glabrata isolates,C. glabrata isolates,in vivo activity
same,in vitro activity against C. albicans,Candida albicans,potent in vitro activity
same,in vitro activity against C. glabrata,Candida glabrata,potent in vitro activity
